We go through ten compounds from patent publication US20060276464A1, “Diarylsulfone sulfonamides and use thereof” (Wyeth, priority 2005, published 2006).

As usually defined, the IC50 is the concentration at which inhibition is half-maximal. A low value points to higher potency. As usually defined, the EC50 is the midpoint of the concentration-response curve. High values mean a need for much substance, low ones an effect from little substance.

Assay [1] addresses T1, SFRP-1 (Homo sapiens, UniProt Q8N474).
T1 sequence (Q8N474 32-314): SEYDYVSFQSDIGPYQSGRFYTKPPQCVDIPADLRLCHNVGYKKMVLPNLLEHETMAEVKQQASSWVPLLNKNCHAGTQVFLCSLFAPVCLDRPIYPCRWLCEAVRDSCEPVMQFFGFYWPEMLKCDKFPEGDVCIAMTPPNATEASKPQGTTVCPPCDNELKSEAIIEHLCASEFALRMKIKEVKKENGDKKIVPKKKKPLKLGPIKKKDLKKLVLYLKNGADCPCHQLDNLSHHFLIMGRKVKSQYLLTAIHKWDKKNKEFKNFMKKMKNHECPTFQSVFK
Nature of the assay: Fluorescence polarization binding assay (competitive displacement of a probe compound from SFRP-1).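 Also: test compound competes with a fluorescent probe held by SFRP-1, seen as a drop in probe anisotropy after incubation in darkness, with anisotropy as function of rising compound dose.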 To be noted: fluorescence anisotropy, 45 nM SFRP-1, 20 nM probe.

Assay [2] deals with T1, SFRP-1. Description: Cell-based assay for in vitro measurement of SFRP-1/SARP2 antagonist activity (U2OS cells co-transfected with 16x TCF-tk-Luciferase reporter, Wnt and hSFRP-1).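 As to all read-outs here: U2OS cells co-transfected with a TCF-tk luciferase reporter, a Wnt vector, hSFRP-1 or empty vector and CMV-βgal, luciferase luminescence read in cell lysates alongside βgal activity.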 The note with it: for fold induction at 10 µM: U2OS, read-out: Fold Induction with SFRP-1, U2OS cells, single dose 10 μM, luciferase reporter, fold induction over SFRP-1 control. For orientation: Reporter assays use an easily measured gene product as a stand-in for the process of interest.

In assay [1], `O=S(=O)(NC1CCN(Cc2nn[nH]n2)CC1)c1cc(S(=O)(=O)c2ccccc2)ccc1C(F)(F)F` [Example 885, 5-(phenylsulfonyl)-N-[1-(2H-tetrazol-5-ylmethyl)piperidin-4-yl]-2-(trifluoromethyl)benzenesulfonamide] registered an IC50 of 400 nM. Also, in assay [2], the EC50 was found to be 2090 nM and the fold induction at 10 µM was 2.7.
The corresponding values for `O=C(O)CCC(=O)N1CCC(NS(=O)(=O)c2cc(S(=O)(=O)c3ccccc3)ccc2C(F)(F)F)C1` (stereo not shown) [Example 886, 4-oxo-4-[3-({[5-(phenylsulfonyl)-2-(trifluoromethyl)phenyl]sulfonyl}amino)pyrrolidin-1-yl]butanoic acid] are 150 nM, 1330 nM and 2.7.
On the same counts, the results for `CN(CCNS(=O)(=O)c1cc(S(=O)(=O)c2ccccc2)ccc1C(F)(F)F)C(=O)N1CCN(C(=O)OC(C)(C)C)CC1` [Example 887, tert-butyl 4-({methyl[2-({[5-(phenylsulfonyl)-2-(trifluoromethyl)phenyl]sulfonyl}amino)ethyl]amino}carbonyl)piperazine-1-carboxylate] are 3000 nM, 1770 nM and 2.3.
On the same counts, the results for `CN(CCNS(=O)(=O)c1cc(S(=O)(=O)c2ccccc2)ccc1C(F)(F)F)C(=O)NCC(=O)O` [Example 888, N-({methyl[2-({[5-(phenylsulfonyl)-2-(trifluoromethyl)phenyl]sulfonyl}amino)ethyl]amino}carbonyl)glycine] are 900 nM, 1770 nM and 2.1.
Take `O=C(O)CCNS(=O)(=O)c1cc(S(=O)(=O)c2ccccc2)ccc1C(F)(F)F` [Example 889, N-{[5-(phenylsulfonyl)-2-(trifluoromethyl)phenyl]sulfonyl}-[…]-alanine]: the IC50 in assay [1] is 4000 nM. Besides, in assay [2], the fold induction at 10 µM came to 1.3.
The corresponding values for `O=C(O)CCCNS(=O)(=O)c1cc(S(=O)(=O)c2ccccc2)ccc1C(F)(F)F` [Example 893, 4-({[5-(phenylsulfonyl)-2-(trifluoromethyl)phenyl]sulfonyl}amino)butanoic acid] are 700 nM and 1.8.
In assay [1], `O=C(O)CCCC(=O)N1CCC(NS(=O)(=O)c2cc(S(=O)(=O)c3ccccc3)ccc2C(F)(F)F)C1` (stereo not shown) [Example 895, 5-oxo-5-[3-({[5-(phenylsulfonyl)-2-(trifluoromethyl)phenyl]sulfonyl}amino)pyrrolidin-1-yl]pentanoic acid] yielded an IC50 of 190 nM. Further, in assay [2], the EC50 amounted to 871 nM and the fold induction at 10 µM was found to be 2.9.
On the same counts, the results for `CC(C)(C)OC(=O)N1CCC(CNS(=O)(=O)c2cc(S(=O)(=O)c3ccccc3)ccc2C(F)(F)F)CC1` [Example 896, tert-butyl 4-[({[5-(phenylsulfonyl)-2-(trifluoromethyl)phenyl]sulfonyl}amino)methyl]piperidine-1-carboxylate] are 300 nM, 675 nM and 2.9.
On the same counts, the results for `CN(CCNS(=O)(=O)c1cc(S(=O)(=O)c2ccccc2)ccc1C(F)(F)F)C(=O)CCC(=O)O` [Example 897, 4-{methyl[2-({[5-(phenylsulfonyl)-2-(trifluoromethyl)phenyl]sulfonyl}amino)ethyl]amino}-4-oxobutanoic acid] are 500 nM, 1360 nM and 2.7.
The corresponding values for `CN(CCNS(=O)(=O)c1cc(S(=O)(=O)c2ccccc2)ccc1C(F)(F)F)C(=O)N1CCNCC1` [Example 898, N-methyl-N-[2-({[5-(phenylsulfonyl)-2-(trifluoromethyl)phenyl]sulfonyl}amino)ethyl]piperazine-1-carboxamide] are 1000 nM, 1930 nM and 3.1.
